Results: ChEMBL document CHEMBL1201862, “PubChem BioAssay data set” (2004)
Active and inactive are the calls of the source.

Legend:
[1] = biological target: T1, High affinity choline transporter 1 (Homo sapiens, UniProt Q9GZV3); experiment: CHT inhibitors, dose response, cell-based, 5-point CRC, membrane potential dye (AID 504840); type: functional
T1 sequence (Q9GZV3 whole entry): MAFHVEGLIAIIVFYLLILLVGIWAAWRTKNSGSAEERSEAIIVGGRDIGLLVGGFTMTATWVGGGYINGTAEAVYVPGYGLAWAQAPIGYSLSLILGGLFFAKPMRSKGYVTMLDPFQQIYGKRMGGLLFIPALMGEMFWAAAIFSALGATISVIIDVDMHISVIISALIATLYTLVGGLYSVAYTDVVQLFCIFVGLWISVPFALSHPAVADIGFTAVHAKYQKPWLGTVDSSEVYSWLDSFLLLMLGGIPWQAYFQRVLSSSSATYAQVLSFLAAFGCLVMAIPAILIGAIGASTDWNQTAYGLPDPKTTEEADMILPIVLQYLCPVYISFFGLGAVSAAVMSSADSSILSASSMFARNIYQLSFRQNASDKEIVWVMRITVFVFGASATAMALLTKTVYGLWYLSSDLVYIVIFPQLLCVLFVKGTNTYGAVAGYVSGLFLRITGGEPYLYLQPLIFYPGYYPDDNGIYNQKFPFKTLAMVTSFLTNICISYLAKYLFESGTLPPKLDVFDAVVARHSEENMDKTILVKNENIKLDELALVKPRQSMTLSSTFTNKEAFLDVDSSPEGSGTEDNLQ

[2] = biological target: T1, High affinity choline transporter 1; experiment: CHT inhibitors, dose response, cell-based, 10-point CRC, membrane potential dye (AID 588401); type: functional;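 also: membrane potential dye fluorescence of choline-evoked depolarization via CHT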
[3] = biological target: T2, Methionyl-tRNA synthetase, putative (Trypanosoma brucei brucei, UniProt Q38C91); type: functional, Trypanosoma brucei brucei strain 927/4 GUTat10.1
T2 sequence (Q38C91 whole entry): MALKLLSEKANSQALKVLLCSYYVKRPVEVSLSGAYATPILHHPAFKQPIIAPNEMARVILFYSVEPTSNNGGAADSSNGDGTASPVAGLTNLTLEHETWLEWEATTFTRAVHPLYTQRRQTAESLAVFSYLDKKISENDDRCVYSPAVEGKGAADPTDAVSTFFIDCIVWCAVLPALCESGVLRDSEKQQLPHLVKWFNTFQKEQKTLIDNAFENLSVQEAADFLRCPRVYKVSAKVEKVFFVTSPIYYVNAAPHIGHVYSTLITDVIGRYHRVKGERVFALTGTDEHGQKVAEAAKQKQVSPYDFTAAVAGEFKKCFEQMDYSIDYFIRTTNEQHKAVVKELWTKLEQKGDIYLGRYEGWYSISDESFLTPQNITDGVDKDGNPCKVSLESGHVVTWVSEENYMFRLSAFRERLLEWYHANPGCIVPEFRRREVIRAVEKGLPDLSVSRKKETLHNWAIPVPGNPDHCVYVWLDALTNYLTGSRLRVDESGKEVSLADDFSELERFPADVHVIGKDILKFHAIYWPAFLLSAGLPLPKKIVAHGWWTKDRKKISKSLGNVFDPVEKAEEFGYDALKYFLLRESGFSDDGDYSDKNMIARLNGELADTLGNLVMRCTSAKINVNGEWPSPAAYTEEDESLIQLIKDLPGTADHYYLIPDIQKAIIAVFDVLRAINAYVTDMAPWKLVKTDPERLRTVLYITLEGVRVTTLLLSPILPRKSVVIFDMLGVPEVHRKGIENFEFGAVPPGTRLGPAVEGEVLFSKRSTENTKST

[4] = Counterscreen for inhibitors of Trypanosoma brucei methionyl tRNA synthetase (MetRS): Luminescence-based cell-based high throughput dose response assay to identify compounds that are cytotoxic to Jurkat human T lymphocyte cells.; type: functional
[5] = biological target: T2, Methionyl-tRNA synthetase, putative; type: functional, Trypanosoma brucei brucei strain 927/4 GUTat10.1; remark: listed apart in the source
[6] = biological target: T3, Corticotropin-releasing factor receptor 2/Corticotropin-releasing factor-binding protein (Homo sapiens, UniProt P24387+Q13324); experiment: Dose Response confirmation of uHTS hits for small molecule antagonists of the CRF-binding protein and CRF-R2 receptor complex.; type: functional; settings: read-out: IC50_Mean
T3 sequence (Q13324 whole entry): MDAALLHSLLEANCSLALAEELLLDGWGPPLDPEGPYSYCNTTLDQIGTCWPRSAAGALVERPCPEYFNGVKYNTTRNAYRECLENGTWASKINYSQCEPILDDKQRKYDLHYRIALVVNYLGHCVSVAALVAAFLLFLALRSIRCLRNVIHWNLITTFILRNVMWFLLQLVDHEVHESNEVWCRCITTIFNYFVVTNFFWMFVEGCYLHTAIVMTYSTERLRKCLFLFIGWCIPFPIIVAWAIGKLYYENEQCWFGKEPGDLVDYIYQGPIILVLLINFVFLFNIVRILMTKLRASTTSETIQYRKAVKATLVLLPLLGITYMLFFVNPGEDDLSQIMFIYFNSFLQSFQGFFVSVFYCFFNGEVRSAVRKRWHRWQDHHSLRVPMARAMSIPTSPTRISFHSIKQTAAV
T3 sequence (P24387 whole entry): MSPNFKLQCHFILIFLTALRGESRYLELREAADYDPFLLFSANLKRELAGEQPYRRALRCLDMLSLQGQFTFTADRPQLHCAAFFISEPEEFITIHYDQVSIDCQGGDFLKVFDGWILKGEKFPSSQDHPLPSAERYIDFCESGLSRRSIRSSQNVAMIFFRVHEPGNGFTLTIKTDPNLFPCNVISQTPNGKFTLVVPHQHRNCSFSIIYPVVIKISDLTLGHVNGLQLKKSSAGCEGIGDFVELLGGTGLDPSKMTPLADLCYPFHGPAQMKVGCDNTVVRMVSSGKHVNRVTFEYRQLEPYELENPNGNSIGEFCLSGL

[7] = biological target: T3, Corticotropin-releasing factor receptor 2/Corticotropin-releasing factor-binding protein; experiment: activators of CRF receptor 2 with binding protein – uHTS hits, confirmation (AID 602473); type: functional; settings: read-out: EC50_Mean
[8] = CRF-BP/CRF-R2 complex antagonists, dose response, cell-based, uHTS hits, 384-well (AID 651639); type: functional, Homo sapiens; settings: read-out: IC50_Mean
[9] = system: BJ; experiment: cytotoxicity toward BJ-TERT fibroblasts, dose response, cell-based, RAS-independent, luminescence (AID 1933); type: functional; settings: Homo sapiens
[10] = system: BJ; experiment: cells; type: functional, cell-based; settings: Homo sapiens
[11] = system: BJ; experiment: cytotoxicity toward BJ-TERT-LT-ST fibroblasts, dose response, cell-based, RAS-independent, luminescence (AID 1935); type: functional; settings: Homo sapiens;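 also: BJ fibroblasts immortalized with TERT plus LT and ST oncogenes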
[12] = cytotoxicity toward DRD oncogenic fibroblasts, dose response, cell-based, non-viral oncogenic, luminescence (AID 1934); type: functional; settings: Homo sapiens
[13] = Fluorescence-based cell-based high throughput dose response assay for inhibitors of the interaction of nucleotide-binding oligomerization domain containing 2 (NOD2) and the receptor-interacting serine-threonine kinase 2 (RIPK2).; type: functional; settings: Homo sapiens
[14] = biological target: T4, Fatty acid synthase (Homo sapiens, UniProt P49327); experiment: FAS thioesterase domain inhibitors, dose response, biochemical, endpoint fluorescence intensity, uHTS hits (AID 624327); type: functional;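 also: fluorescence from hydrolysis of an O-methyl fluorescein acyl ester substrate by the enzyme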
[15] = biological target: T4, Fatty acid synthase; experiment: FAS thioesterase domain inhibitors, dose response, biochemical, kinetic fluorescence intensity (AID 624326); type: functional;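 also: rate of fluorescence rise from hydrolysis of a fluorogenic O-methyl fluorescein ester substrate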
[16] = biological target: Heat shock protein HSP 90-alpha (Homo sapiens, UniProt P07900); type: functional, organism-based
[17] = biological target: Genome polyprotein (dengue virus type 2, UniProt P29990); experiment: Dengue-2 NS5 methyltransferase inhibitors, primary screen, biochemical, confirmation dose response (AID 588689); type: functional
[18] = NIH-3T3 fibroblast cytotoxicity, dose response, cytotoxicity control, cell-based, fluorescence, Alamar Blue, secondary assay (AID 2327); type: functional;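 also: NIH-3T3 mouse fibroblasts cultured with fluconazole at 8 µg/mL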
[19] = system: Streptococcus sp. 'group A'; experiment: growth inhibition of control SK(-) GAS strain, dose response, counter-screen for streptokinase expression inhibitor project, luminescence, kanamycin, BacTiterGlo, confirmation (AID 1900); type: functional, organism-based
[20] = C. albicans growth with fluconazole, confirmation, fluorescence, retest (AID 2467); type: functional, cell-based
[21] = biological target: T5, Serine/threonine-protein phosphatase (Candida dubliniensis (strain CD36 / CBS 7987 / NCPF 3949 / NRRLY-17841) (Yeast), UniProt B9W6M3); experiment: calcineurin pathway inhibitors in yeast reporter, dose response, S. cerevisiae, CDRE-lacZ, luminescence, secondary (AID 2388); type: functional, cell-based;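 also: yeast reporter cells carrying a calcineurin-responsive lacZ construct stimulated with calcium chloride; luminescent beta-galactosidase reporter signal in whole cells rather than isolated phosphatase activity; potency for inhibition where a drop in reporter signal means calcineurin blockade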
T5 sequence (B9W6M3 whole entry): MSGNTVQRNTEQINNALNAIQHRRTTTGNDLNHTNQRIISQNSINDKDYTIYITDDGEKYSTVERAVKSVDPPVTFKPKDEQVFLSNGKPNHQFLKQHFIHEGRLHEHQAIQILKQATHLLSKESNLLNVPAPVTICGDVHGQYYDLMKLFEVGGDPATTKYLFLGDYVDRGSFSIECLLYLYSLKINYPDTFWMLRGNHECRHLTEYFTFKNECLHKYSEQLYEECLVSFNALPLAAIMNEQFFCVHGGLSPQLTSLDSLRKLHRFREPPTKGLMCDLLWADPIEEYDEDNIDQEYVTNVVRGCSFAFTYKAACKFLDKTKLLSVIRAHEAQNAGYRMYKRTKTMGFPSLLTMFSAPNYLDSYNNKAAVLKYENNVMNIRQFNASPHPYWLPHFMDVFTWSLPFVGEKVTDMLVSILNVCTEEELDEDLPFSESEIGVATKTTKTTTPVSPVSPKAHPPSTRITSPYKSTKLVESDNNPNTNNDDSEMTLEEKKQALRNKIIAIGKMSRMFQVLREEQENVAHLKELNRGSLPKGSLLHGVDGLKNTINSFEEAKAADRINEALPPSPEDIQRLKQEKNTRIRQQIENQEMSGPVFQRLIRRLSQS

[22] = system: Streptococcus; experiment: Group A Streptococcus viability loss, dose response, counter-screen for streptokinase expression inhibitor project, luminescence, BacTiterGlo (AID 1915); type: functional, organism-based;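 also: potency for reduction of bacterial viability or growth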
[23] = Luminescence Cell-Based Dose Retest to Confirm Inhibitors of Cancer Stem Cells. [Related pubchem assays (depositor defined):AID2717, AID2721]; type: functional; settings: Homo sapiens
[24] = biological target: T6, Activin receptor type-1 (Homo sapiens, UniProt Q04771); experiment: Navigating the Kinome. Panel member name: ACVR1; type: functional
T6 sequence (Q04771 whole entry): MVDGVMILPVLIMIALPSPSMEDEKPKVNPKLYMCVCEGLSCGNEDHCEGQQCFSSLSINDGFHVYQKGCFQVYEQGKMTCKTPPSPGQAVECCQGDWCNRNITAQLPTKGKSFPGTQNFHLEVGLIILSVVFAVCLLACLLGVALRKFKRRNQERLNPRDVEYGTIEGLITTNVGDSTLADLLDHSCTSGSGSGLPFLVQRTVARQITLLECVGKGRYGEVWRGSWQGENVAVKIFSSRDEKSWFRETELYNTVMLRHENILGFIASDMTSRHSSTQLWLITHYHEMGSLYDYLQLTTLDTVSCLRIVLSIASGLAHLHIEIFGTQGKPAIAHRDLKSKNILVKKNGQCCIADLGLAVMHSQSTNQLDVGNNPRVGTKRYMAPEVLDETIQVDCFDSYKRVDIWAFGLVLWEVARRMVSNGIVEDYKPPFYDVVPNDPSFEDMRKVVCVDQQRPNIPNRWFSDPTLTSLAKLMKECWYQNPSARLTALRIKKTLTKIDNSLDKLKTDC

T4 sequence (P49327 whole entry, the tested form may be a part): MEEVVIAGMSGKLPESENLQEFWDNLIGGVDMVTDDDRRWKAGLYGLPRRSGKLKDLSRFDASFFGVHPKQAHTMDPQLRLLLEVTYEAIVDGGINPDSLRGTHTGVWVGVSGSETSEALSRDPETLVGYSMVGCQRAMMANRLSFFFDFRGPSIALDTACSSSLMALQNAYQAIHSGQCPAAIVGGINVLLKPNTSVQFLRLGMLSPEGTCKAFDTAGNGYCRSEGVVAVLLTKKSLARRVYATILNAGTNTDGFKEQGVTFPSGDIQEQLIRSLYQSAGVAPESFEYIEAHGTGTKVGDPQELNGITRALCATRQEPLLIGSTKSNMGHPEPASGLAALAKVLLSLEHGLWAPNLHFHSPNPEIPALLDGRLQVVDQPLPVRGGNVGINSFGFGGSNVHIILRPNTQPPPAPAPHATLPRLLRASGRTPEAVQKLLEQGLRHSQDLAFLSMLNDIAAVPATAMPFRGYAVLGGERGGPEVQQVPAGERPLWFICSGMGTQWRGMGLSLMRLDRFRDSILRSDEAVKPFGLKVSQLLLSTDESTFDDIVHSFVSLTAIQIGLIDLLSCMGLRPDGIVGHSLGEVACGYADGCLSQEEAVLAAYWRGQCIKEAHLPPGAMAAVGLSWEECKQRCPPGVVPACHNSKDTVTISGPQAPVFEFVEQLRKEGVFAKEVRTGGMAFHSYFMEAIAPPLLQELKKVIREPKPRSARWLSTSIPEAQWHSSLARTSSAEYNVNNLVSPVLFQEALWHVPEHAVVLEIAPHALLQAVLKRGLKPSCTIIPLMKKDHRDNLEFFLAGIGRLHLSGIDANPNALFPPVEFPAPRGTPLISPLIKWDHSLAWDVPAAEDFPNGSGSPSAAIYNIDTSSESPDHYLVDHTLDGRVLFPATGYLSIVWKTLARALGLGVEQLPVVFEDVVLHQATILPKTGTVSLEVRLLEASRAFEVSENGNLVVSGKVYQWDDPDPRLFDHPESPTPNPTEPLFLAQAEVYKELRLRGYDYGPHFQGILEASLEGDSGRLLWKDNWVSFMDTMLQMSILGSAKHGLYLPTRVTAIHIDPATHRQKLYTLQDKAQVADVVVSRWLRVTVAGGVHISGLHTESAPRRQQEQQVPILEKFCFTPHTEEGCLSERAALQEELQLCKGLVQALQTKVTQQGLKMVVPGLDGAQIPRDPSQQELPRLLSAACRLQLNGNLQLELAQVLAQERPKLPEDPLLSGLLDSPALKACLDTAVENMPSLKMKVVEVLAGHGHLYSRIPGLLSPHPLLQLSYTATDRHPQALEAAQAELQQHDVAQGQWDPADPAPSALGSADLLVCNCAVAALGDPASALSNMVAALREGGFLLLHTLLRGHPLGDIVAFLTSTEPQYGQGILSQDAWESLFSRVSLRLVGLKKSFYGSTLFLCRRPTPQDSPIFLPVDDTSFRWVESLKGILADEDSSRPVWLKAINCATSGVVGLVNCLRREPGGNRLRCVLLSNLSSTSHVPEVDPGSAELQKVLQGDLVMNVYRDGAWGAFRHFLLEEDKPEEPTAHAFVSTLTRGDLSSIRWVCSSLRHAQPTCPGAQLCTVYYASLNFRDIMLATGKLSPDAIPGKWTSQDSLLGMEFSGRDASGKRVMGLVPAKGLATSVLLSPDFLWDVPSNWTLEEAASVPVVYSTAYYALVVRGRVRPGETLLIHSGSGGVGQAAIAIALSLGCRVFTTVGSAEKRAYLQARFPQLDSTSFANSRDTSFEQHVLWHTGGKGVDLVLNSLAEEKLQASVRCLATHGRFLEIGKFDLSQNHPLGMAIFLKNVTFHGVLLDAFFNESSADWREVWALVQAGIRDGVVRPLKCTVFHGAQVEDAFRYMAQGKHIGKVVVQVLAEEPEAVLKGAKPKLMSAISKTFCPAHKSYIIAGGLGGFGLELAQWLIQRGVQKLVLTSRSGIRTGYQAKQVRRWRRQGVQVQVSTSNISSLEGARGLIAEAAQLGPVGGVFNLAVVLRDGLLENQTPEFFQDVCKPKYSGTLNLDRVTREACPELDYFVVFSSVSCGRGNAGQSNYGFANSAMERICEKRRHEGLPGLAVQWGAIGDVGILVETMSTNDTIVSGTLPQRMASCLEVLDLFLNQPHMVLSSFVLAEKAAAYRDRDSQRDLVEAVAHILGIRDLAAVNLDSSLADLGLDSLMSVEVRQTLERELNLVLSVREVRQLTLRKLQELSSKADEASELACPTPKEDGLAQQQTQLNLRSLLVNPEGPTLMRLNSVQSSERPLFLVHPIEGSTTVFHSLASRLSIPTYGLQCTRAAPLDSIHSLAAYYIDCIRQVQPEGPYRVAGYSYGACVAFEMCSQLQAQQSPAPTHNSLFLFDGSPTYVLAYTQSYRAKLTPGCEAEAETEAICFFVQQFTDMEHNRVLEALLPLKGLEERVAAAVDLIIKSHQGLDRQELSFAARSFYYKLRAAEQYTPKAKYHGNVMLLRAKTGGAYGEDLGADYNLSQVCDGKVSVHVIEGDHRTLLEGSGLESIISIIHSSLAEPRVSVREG
Genome polyprotein, sequence (P29990 2492-3391 limits assumed): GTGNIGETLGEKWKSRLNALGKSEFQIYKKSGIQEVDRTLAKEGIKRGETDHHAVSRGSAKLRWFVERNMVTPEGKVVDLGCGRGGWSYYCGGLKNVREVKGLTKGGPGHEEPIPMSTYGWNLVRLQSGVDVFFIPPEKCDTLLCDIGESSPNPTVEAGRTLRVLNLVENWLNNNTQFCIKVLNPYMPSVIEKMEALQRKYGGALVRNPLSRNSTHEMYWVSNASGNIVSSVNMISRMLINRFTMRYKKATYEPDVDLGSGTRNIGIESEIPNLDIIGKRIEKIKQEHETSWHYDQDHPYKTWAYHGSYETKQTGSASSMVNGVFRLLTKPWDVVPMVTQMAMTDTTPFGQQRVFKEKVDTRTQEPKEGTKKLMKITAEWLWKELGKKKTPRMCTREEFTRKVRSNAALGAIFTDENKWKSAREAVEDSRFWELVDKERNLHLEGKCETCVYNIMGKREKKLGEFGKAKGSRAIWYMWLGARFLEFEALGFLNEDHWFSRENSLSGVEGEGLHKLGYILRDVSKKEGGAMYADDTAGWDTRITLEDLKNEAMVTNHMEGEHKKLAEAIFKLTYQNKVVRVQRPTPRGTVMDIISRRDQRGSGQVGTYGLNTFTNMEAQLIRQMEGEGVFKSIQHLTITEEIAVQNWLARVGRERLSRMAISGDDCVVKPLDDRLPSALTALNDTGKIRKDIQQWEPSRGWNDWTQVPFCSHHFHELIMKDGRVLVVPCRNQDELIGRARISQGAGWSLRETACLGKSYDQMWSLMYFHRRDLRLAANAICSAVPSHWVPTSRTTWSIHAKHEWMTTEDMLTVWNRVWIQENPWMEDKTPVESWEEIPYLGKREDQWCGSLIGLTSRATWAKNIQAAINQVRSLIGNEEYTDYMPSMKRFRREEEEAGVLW

Compound: O=C(NN1C(=O)/C(=C/c2cccs2)SC1=S)c1ccncc1
- IC50 [1]: 7.57 µM (active)
- IC50 [2]: 7.13 µM (active)

Compound: O=C(CSc1ccc(-c2nc3ccccc3[nH]2)cn1)Nc1ccc(S(=O)(=O)NC2CC2)cc1
- IC50 [3]: 4.53 µM (active)
- IC50 [4]: 83.3 µM (inactive)
- IC50 [5]: 3.58 µM (active)

Compound: COc1ccc(-c2c(C)nn3c(N4CCCCCC4)cc(C)nc23)cc1OC
- IC50 [6]: 21.4 µM (active)
- EC50 [7]: > 53 µM (inactive)
- IC50 [8]: > 20 µM (inactive)

Compound: C=CCOc1cccc(C(=O)/C=C2/C(=O)Nc3ccccc32)c1
- EC50 [9]: 5.47 µM (inconclusive)
- EC50 [10]: 31.5 µM (inconclusive)
- EC50 [11]: 7.99 µM (active)
- EC50 [12]: 9.43 µM (inconclusive)
- IC50 [13]: 5.51 µM (active)

Compound: Cn1c(/C=C/N(Cc2ccccc2)c2ccccc2)c([N+](=O)[O-])c(=O)n(C)c1=O
- IC50 [1]: 2.98 µM (active)
- IC50 [2]: 3.12 µM (active)
- IC50 [14]: 18.8 µM (active)
- IC50 [15]: 16.3 µM (active)

Compound: Cc1ccc(S(=O)(=O)Nc2ccc3ccccc3c2[N+](=O)[O-])cc1
- AC50 [16]: 8.19 µM (active)
- IC50 [17]: 31.7 µM (active)
- IC50 [6]: 18.7 µM (active)
- EC50 [7]: > 53 µM (inactive)
- IC50 [8]: 14.9 µM (active)

Compound: O=C(NNC1=C(C(=O)C(F)(F)F)CCC1)c1ccc(Br)cc1
- EC50 [18]: > 75 µM (inactive)
- EC50 [19]: 1.02 µM (active)
- EC50 [20]: 0.152 µM (active)
- EC50 [21]: > 180 µM (inactive)
- EC50 [22]: 2.23 µM (active)
- AC50 [23]: 3.16 µM (active)
- AC50 [16]: 1.11 µM (active)
- IC50 [1]: 11.2 µM (active)

Compound: CC1CCCCC1NC(=O)c1cccc(S(=O)(=O)N2CCN(C)CC2)c1 (stereo not drawn)
- IC50 [1]: 4.37 µM (active)
- IC50 [2]: 4.22 µM (active)

Compound: OCCN1CCN(c2ncnc3scc(-c4ccc(F)cc4)c23)CC1
- IC50 [1]: 6.59 µM (active)
- IC50 [2]: 7.51 µM (active)

Compound: COc1cc(CCc2ccccc2)c(C(=O)O)c(O)c1CC=C(C)C [AMORFRUTIN A]
- IC50 [6]: 7.93 µM (active)
- EC50 [7]: 35.2 µM (active)
- IC50 [8]: 12.1 µM (active)

Compound: O=C(Nc1cccc(Cl)c1)Nc1ncc(CCNc2ncnc3ccsc23)s1 [SNS-314]
- Ki [24]: > 3.98 µM (inactive)
